In ChEMBL document CHEMBL1137369, “New orally active derivatives of artemisinin with high efficacy against multidrug-resistant malaria in mice” (J Med Chem, 2006) one finds Activity and logP data, which are given here for ten compounds.

The structures appear in SMILES notation.

One data set relates to Plasmodium yoelii nigeriensis. Nature of the data set: Antimalarial activity against multidrug-resistant Plasmodium yoelii nigeriensis infected Swiss mice (Mus musculus) at 48 mg/kg peroral dose over 4 days. To be noted: route oral. In kind it is functional.
`C[C@H]1[C@@H](OCCc2ccc(-c3ccccc3)cc2)O[C@@H]2O[C@@]3(C)CC[C@H]4[C@H](C)CC[C@@H]1[C@@]24OO3` had an Activity of 100%.
For the compound `C[C@H]1[C@H](OCCC2C3CC4CC(C3)CC2C4)O[C@@H]2O[C@@]3(C)CC[C@H]4[C@H](C)CC[C@@H]1[C@@]24OO3` (some centres undefined), the Activity is listed as 100%.
Turning to `C[C@@H]1CC[C@H]2[C@@H](C)C(OCCC3c4ccccc4-c4ccccc43)O[C@@H]3C[C@@]4(C)CC[C@@H]1[C@]32OO4` (some centres undefined), the Activity is 100%.
Same read-out and setting: the same measure for `C[C@H]1[C@@H](OCCC2C3CC4CC(C3)CC2C4)O[C@@H]2O[C@@]3(C)CC[C@H]4[C@H](C)CC[C@@H]1[C@@]24OO3` (some centres undefined): 100%.
Take `C[C@H]1[C@H](OCCC23CC4CC(CC(C4)C2)C3)O[C@@H]2O[C@@]3(C)CC[C@H]4[C@H](C)CC[C@@H]1[C@@]24OO3`: the Activity was found to be 100%.
`C[C@@H]1CC[C@H]2[C@@H](C)C(OC3C4CC5CC(C4)CC3C5)O[C@@H]3O[C@@]4(C)CC[C@@H]1[C@]32OO4` (some centres undefined): the Activity came to 100%.
`C[C@H]1[C@H](OCCOc2ccccc2-c2ccccc2)O[C@@H]2C[C@@]3(C)CC[C@H]4[C@H](C)CC[C@@H]1[C@@]24OO3` yielded an Activity of 100%.
In turn, `C[C@H]1[C@@H](OCc2ccc(-c3ccccc3)cc2)O[C@@H]2O[C@@]3(C)CC[C@H]4[C@H](C)CC[C@@H]1[C@@]24OO3` returned an Activity of 100%.
Compound `CCO[C@@H]1O[C@@H]2O[C@]3(C)CC[C@H]4[C@H](C)CC[C@@H]([C@H]1C)[C@@]24OO3` [ALPHA-ARTEETHER] came in with an Activity of 100%.
In turn, `CCO[C@H]1O[C@@H]2O[C@@]3(C)CC[C@H]4[C@H](C)CC[C@@H]([C@H]1C)[C@@]24OO3` [ARTEMOTIL] came in with an Activity of 100%.

For another data set, the system named is Plasmodium yoelii nigeriensis. Nature of the data set: Antimalarial activity as cures against multidrug-resistant Plasmodium yoelii nigeriensis infected Swiss mice (Mus musculus) at 48 mg/kg peroral dose over 4 days. In kind it is functional. The conditions noted are these: route oral.
As to `C[C@H]1[C@@H](OCCc2ccc(-c3ccccc3)cc2)O[C@@H]2O[C@@]3(C)CC[C@H]4[C@H](C)CC[C@@H]1[C@@]24OO3`, the Activity came to 100%.
In turn, `C[C@H]1[C@H](OCCC2C3CC4CC(C3)CC2C4)O[C@@H]2O[C@@]3(C)CC[C@H]4[C@H](C)CC[C@@H]1[C@@]24OO3` (some centres undefined) returned an Activity of 100%.
In turn, `C[C@@H]1CC[C@H]2[C@@H](C)C(OCCC3c4ccccc4-c4ccccc43)O[C@@H]3C[C@@]4(C)CC[C@@H]1[C@]32OO4` (some centres undefined) came in with an Activity of 100%.
Regarding `C[C@H]1[C@@H](OCCC2C3CC4CC(C3)CC2C4)O[C@@H]2O[C@@]3(C)CC[C@H]4[C@H](C)CC[C@@H]1[C@@]24OO3` (some centres undefined), the Activity was 100%.
As for `C[C@H]1[C@H](OCCC23CC4CC(CC(C4)C2)C3)O[C@@H]2O[C@@]3(C)CC[C@H]4[C@H](C)CC[C@@H]1[C@@]24OO3`, the Activity is reported as 100%.
For the compound `C[C@@H]1CC[C@H]2[C@@H](C)C(OC3C4CC5CC(C4)CC3C5)O[C@@H]3O[C@@]4(C)CC[C@@H]1[C@]32OO4` (some centres undefined), the Activity was 100%.
Same read-out and setting: the value for `C[C@H]1[C@H](OCCOc2ccccc2-c2ccccc2)O[C@@H]2C[C@@]3(C)CC[C@H]4[C@H](C)CC[C@@H]1[C@@]24OO3` was 100%.
The same measure, in the same setting: the value for `C[C@H]1[C@@H](OCc2ccc(-c3ccccc3)cc2)O[C@@H]2O[C@@]3(C)CC[C@H]4[C@H](C)CC[C@@H]1[C@@]24OO3` was 100%; that for `CCO[C@@H]1O[C@@H]2O[C@]3(C)CC[C@H]4[C@H](C)CC[C@@H]([C@H]1C)[C@@]24OO3` [ALPHA-ARTEETHER] was 100%.
`CCO[C@H]1O[C@@H]2O[C@@]3(C)CC[C@H]4[C@H](C)CC[C@@H]([C@H]1C)[C@@]24OO3` [ARTEMOTIL] had an Activity of 100%.

A further data set has as its system Plasmodium yoelii nigeriensis. Nature of the data set: Antimalarial activity against multidrug-resistant Plasmodium yoelii nigeriensis infected Swiss mice (Mus musculus) at 12 mg/kg peroral dose over 4 days. The conditions noted are these: route oral. In kind it is functional.
With `C[C@H]1[C@@H](OCCc2ccc(-c3ccccc3)cc2)O[C@@H]2O[C@@]3(C)CC[C@H]4[C@H](C)CC[C@@H]1[C@@]24OO3`, the Activity is on record as 100%.
In turn, `C[C@H]1[C@H](OCCC2C3CC4CC(C3)CC2C4)O[C@@H]2O[C@@]3(C)CC[C@H]4[C@H](C)CC[C@@H]1[C@@]24OO3` (some centres undefined) had an Activity of 100%.
On the same count and under the same terms, the value for `C[C@@H]1CC[C@H]2[C@@H](C)C(OCCC3c4ccccc4-c4ccccc43)O[C@@H]3C[C@@]4(C)CC[C@@H]1[C@]32OO4` (some centres undefined) was 100%.
On the same count and under the same terms, the value for `C[C@H]1[C@H](OCCC23CC4CC(CC(C4)C2)C3)O[C@@H]2O[C@@]3(C)CC[C@H]4[C@H](C)CC[C@@H]1[C@@]24OO3` was 97.43%; that for `C[C@@H]1CC[C@H]2[C@@H](C)C(OC3C4CC5CC(C4)CC3C5)O[C@@H]3O[C@@]4(C)CC[C@@H]1[C@]32OO4` (some centres undefined) was 100%.
`C[C@H]1[C@H](OCCOc2ccccc2-c2ccccc2)O[C@@H]2C[C@@]3(C)CC[C@H]4[C@H](C)CC[C@@H]1[C@@]24OO3`: the Activity is given as 100%.
As to `C[C@H]1[C@@H](OCc2ccc(-c3ccccc3)cc2)O[C@@H]2O[C@@]3(C)CC[C@H]4[C@H](C)CC[C@@H]1[C@@]24OO3`, the Activity is on record as 100%.

Another data set deals with Plasmodium yoelii nigeriensis. Put plainly: Antimalarial activity against multidrug-resistant Plasmodium yoelii nigeriensis infected Swiss mice (Mus musculus) at 6 mg/kg peroral dose over 4 days. In kind it is functional. The conditions noted are these: route oral.
`C[C@H]1[C@H](OCCC23CC4CC(CC(C4)C2)C3)O[C@@H]2O[C@@]3(C)CC[C@H]4[C@H](C)CC[C@@H]1[C@@]24OO3`: the Activity was found to be 61.25%.
For the compound `C[C@H]1[C@H](OCCOc2ccccc2-c2ccccc2)O[C@@H]2C[C@@]3(C)CC[C@H]4[C@H](C)CC[C@@H]1[C@@]24OO3`, the Activity is recorded as 64.44%.

Test system in the next data set: not listed separately
Nature of the data set: Lipophilicity, Log P of the compound. In kind it is physicochemical. To be noted: octanol/water.
On to `C[C@H]1[C@@H](OCCc2ccc(-c3ccccc3)cc2)O[C@@H]2O[C@@]3(C)CC[C@H]4[C@H](C)CC[C@@H]1[C@@]24OO3`, for which the logP (as a rule, a log measure of how a compound divides between an organic and an aqueous phase) was 7.19.
Turning to `C[C@H]1[C@H](OCCC2C3CC4CC(C3)CC2C4)O[C@@H]2O[C@@]3(C)CC[C@H]4[C@H](C)CC[C@@H]1[C@@]24OO3` (some centres undefined), the logP turned out to be 6.15.
In turn, `C[C@@H]1CC[C@H]2[C@@H](C)C(OCCC3c4ccccc4-c4ccccc43)O[C@@H]3C[C@@]4(C)CC[C@@H]1[C@]32OO4` (some centres undefined) displayed a logP of 7.1.
The compound `C[C@H]1[C@@H](OCCC2C3CC4CC(C3)CC2C4)O[C@@H]2O[C@@]3(C)CC[C@H]4[C@H](C)CC[C@@H]1[C@@]24OO3` (some centres undefined) registered a logP of 6.15.
Same read-out and setting: the value for `C[C@H]1[C@H](OCCC23CC4CC(CC(C4)C2)C3)O[C@@H]2O[C@@]3(C)CC[C@H]4[C@H](C)CC[C@@H]1[C@@]24OO3` was 6.29; that for `C[C@@H]1CC[C@H]2[C@@H](C)C(OC3C4CC5CC(C4)CC3C5)O[C@@H]3O[C@@]4(C)CC[C@@H]1[C@]32OO4` (some centres undefined) was 5.51; that for `C[C@H]1[C@H](OCCOc2ccccc2-c2ccccc2)O[C@@H]2C[C@@]3(C)CC[C@H]4[C@H](C)CC[C@@H]1[C@@]24OO3` was 6.85.
For `C[C@H]1[C@@H](OCc2ccc(-c3ccccc3)cc2)O[C@@H]2O[C@@]3(C)CC[C@H]4[C@H](C)CC[C@@H]1[C@@]24OO3`, the logP worked out at 6.91.
`CCO[C@@H]1O[C@@H]2O[C@]3(C)CC[C@H]4[C@H](C)CC[C@@H]([C@H]1C)[C@@]24OO3` [ALPHA-ARTEETHER]: the logP came to 3.84.
`CCO[C@H]1O[C@@H]2O[C@@]3(C)CC[C@H]4[C@H](C)CC[C@@H]([C@H]1C)[C@@]24OO3` [ARTEMOTIL] yielded a logP of 3.84.

Test system in another data set: not listed separately
Nature of the data set: Protection of Swiss mice (Mus musculus) infected with Plasmodium yoelii nigeriensis at 48 mg/kg, perorally for 4 days. In kind it is functional. The conditions noted are these: route oral.
For `C[C@H]1[C@@H](OCCc2ccc(-c3ccccc3)cc2)O[C@@H]2O[C@@]3(C)CC[C@H]4[C@H](C)CC[C@@H]1[C@@]24OO3`, the Activity was 100%.
`C[C@@H]1CC[C@H]2[C@@H](C)C(OCCC3c4ccccc4-c4ccccc43)O[C@@H]3C[C@@]4(C)CC[C@@H]1[C@]32OO4` (some centres undefined) registered an Activity of 100%.
For the compound `C[C@H]1[C@@H](OCCC2C3CC4CC(C3)CC2C4)O[C@@H]2O[C@@]3(C)CC[C@H]4[C@H](C)CC[C@@H]1[C@@]24OO3` (some centres undefined), the Activity turned out to be 100%.
Turning to `C[C@@H]1CC[C@H]2[C@@H](C)C(OC3C4CC5CC(C4)CC3C5)O[C@@H]3O[C@@]4(C)CC[C@@H]1[C@]32OO4` (some centres undefined), the Activity turned out to be 100%.
`C[C@H]1[C@@H](OCc2ccc(-c3ccccc3)cc2)O[C@@H]2O[C@@]3(C)CC[C@H]4[C@H](C)CC[C@@H]1[C@@]24OO3` gave an Activity of 100%.
